Assay: xn = mol fraction of the nth substance listed
Details: 100 kPa, Liquid; for viscosity: Capillary tube (Ostwald / Ubbelohde) method; for mass density: Vibrating tube method

O=C1CCCO1 [γ-butyrolactone] + CCCCCCCCn1cc[n+](C)c1.O=S(=O)([N-]S(=O)(=O)C(F)(F)F)C(F)(F)F
Details | mass density [kg/m3] | viscosity [mPa·s]
293.15 K, x2 = 0 | 1129.49 | 1.86
293.15 K, x2 = 0.0486 | 1168.04 | 2.77
293.15 K, x2 = 0.1001 | 1197.81 | 4
293.15 K, x2 = 0.1497 | 1219.5 | 5.49
293.15 K, x2 = 0.2006 | 1237.06 | 7.48
293.15 K, x2 = 0.3037 | 1262.89 | 12.83
293.15 K, x2 = 0.394 | 1278.72 | –
293.15 K, x2 = 0.4952 | 1292.01 | 29.29
293.15 K, x2 = 0.586 | 1300.99 | –
293.15 K, x2 = 0.7007 | 1309.94 | 54.57
293.15 K, x2 = 0.8081 | 1316.42 | –
293.15 K, x2 = 0.9003 | 1321 | 87.86
298.15 K, x2 = 0 | 1124.59 | 1.71
298.15 K, x2 = 0.0486 | 1163.25 | 2.53
298.15 K, x2 = 0.1001 | 1193.1 | 3.64
298.15 K, x2 = 0.1497 | 1214.96 | 4.9
298.15 K, x2 = 0.2006 | 1232.47 | 6.56
298.15 K, x2 = 0.3037 | 1258.37 | 10.89
298.15 K, x2 = 0.394 | 1274.26 | –
298.15 K, x2 = 0.4952 | 1287.58 | 23.62
298.15 K, x2 = 0.586 | 1296.61 | –
298.15 K, x2 = 0.7007 | 1305.54 | 42.86
298.15 K, x2 = 0.8081 | 1312.07 | –
298.15 K, x2 = 0.9003 | 1316.57 | 68
303.15 K, x2 = 0 | 1119.68 | 1.58
303.15 K, x2 = 0.0486 | 1158.47 | 2.31
303.15 K, x2 = 0.1001 | 1188.35 | 3.26
303.15 K, x2 = 0.1497 | 1210.25 | 4.41
303.15 K, x2 = 0.2006 | 1227.82 | 5.8
303.15 K, x2 = 0.3037 | 1253.81 | 9.44
303.15 K, x2 = 0.394 | 1269.73 | –
303.15 K, x2 = 0.4952 | 1283.09 | 19.3
303.15 K, x2 = 0.586 | 1292.14 | –
303.15 K, x2 = 0.7007 | 1301.1 | 34.7
303.15 K, x2 = 0.8081 | 1307.63 | –
303.15 K, x2 = 0.9003 | 1312.16 | 53.86
308.15 K, x2 = 0 | 1114.78 | 1.47
308.15 K, x2 = 0.0486 | 1153.69 | 2.12
308.15 K, x2 = 0.1001 | 1183.64 | 2.96
308.15 K, x2 = 0.1497 | 1205.57 | 3.97
308.15 K, x2 = 0.2006 | 1223.18 | 5.15
308.15 K, x2 = 0.3037 | 1249.22 | 8.26
308.15 K, x2 = 0.394 | 1265.2 | –
308.15 K, x2 = 0.4952 | 1278.6 | 16.57
308.15 K, x2 = 0.586 | 1287.67 | –
308.15 K, x2 = 0.7007 | 1296.66 | 28.87
308.15 K, x2 = 0.8081 | 1303.22 | –
308.15 K, x2 = 0.9003 | 1307.76 | 43.53
313.15 K, x2 = 0 | 1109.87 | 1.37
313.15 K, x2 = 0.0486 | 1148.89 | 1.96
313.15 K, x2 = 0.1001 | 1178.93 | 2.72
313.15 K, x2 = 0.1497 | 1200.87 | 3.61
313.15 K, x2 = 0.2006 | 1218.54 | 4.62
313.15 K, x2 = 0.3037 | 1244.66 | 7.27
313.15 K, x2 = 0.394 | 1260.67 | –
313.15 K, x2 = 0.4952 | 1274.11 | 13.95
313.15 K, x2 = 0.586 | 1283.2 | –
313.15 K, x2 = 0.7007 | 1292.22 | 23.79
313.15 K, x2 = 0.8081 | 1298.8 | –
313.15 K, x2 = 0.9003 | 1303.36 | 35.68
318.15 K, x2 = 0 | 1104.96 | 1.28
318.15 K, x2 = 0.0486 | 1144.1 | 1.82
318.15 K, x2 = 0.1001 | 1174.21 | 2.49
318.15 K, x2 = 0.1497 | 1196.2 | 3.23
318.15 K, x2 = 0.2006 | 1213.93 | 4.17
318.15 K, x2 = 0.3037 | 1240.09 | 6.47
318.15 K, x2 = 0.394 | 1256.15 | –
318.15 K, x2 = 0.4952 | 1269.61 | 12
318.15 K, x2 = 0.586 | 1278.74 | –
318.15 K, x2 = 0.7007 | 1287.82 | 19.85
318.15 K, x2 = 0.8081 | 1294.4 | –
318.15 K, x2 = 0.9003 | 1298.97 | 29.79
323.15 K, x2 = 0 | 1100.05 | 1.2
323.15 K, x2 = 0.0486 | 1139.34 | 1.69
323.15 K, x2 = 0.1001 | 1169.52 | 2.29
323.15 K, x2 = 0.1497 | 1191.56 | 2.95
323.15 K, x2 = 0.2006 | 1209.34 | 3.78
323.15 K, x2 = 0.3037 | 1235.56 | 5.8
323.15 K, x2 = 0.394 | 1251.63 | –
323.15 K, x2 = 0.4952 | 1265.15 | 10.5
323.15 K, x2 = 0.586 | 1274.3 | –
323.15 K, x2 = 0.7007 | 1283.4 | 16.69
323.15 K, x2 = 0.8081 | 1290.01 | –
323.15 K, x2 = 0.9003 | 1294.6 | 25.43

O=C1CCCO1 [γ-butyrolactone] + CCCCCC[n+]1ccn(C)c1.O=S(=O)([N-]S(=O)(=O)C(F)(F)F)C(F)(F)F
Details | mass density [kg/m3] | viscosity [mPa·s]
293.15 K, x2 = 0 | 1129.49 | 1.86
293.15 K, x2 = 0.0507 | 1176 | 2.63
293.15 K, x2 = 0.0999 | 1209.89 | 3.68
293.15 K, x2 = 0.1544 | 1238.99 | 5.32
293.15 K, x2 = 0.1999 | 1258.54 | 6.49
293.15 K, x2 = 0.3004 | 1291.11 | 10.57
293.15 K, x2 = 0.404 | 1314.91 | –
293.15 K, x2 = 0.5044 | 1332.2 | 23.96
293.15 K, x2 = 0.596 | 1344.4 | –
293.15 K, x2 = 0.7027 | 1355.85 | 44.32
293.15 K, x2 = 0.8182 | 1365.51 | –
293.15 K, x2 = 0.8924 | 1370.62 | 70.24
298.15 K, x2 = 0 | 1124.59 | 1.71
298.15 K, x2 = 0.0507 | 1171.09 | 2.43
298.15 K, x2 = 0.0999 | 1204.99 | 3.32
298.15 K, x2 = 0.1544 | 1234.06 | 4.67
298.15 K, x2 = 0.1999 | 1253.61 | 5.73
298.15 K, x2 = 0.3004 | 1286.27 | 9.16
298.15 K, x2 = 0.404 | 1310.08 | –
298.15 K, x2 = 0.5044 | 1327.28 | 19.96
298.15 K, x2 = 0.596 | 1339.47 | –
298.15 K, x2 = 0.7027 | 1350.79 | 35.8
298.15 K, x2 = 0.8182 | 1360.52 | –
298.15 K, x2 = 0.8924 | 1365.62 | 55.4
303.15 K, x2 = 0 | 1119.68 | 1.58
303.15 K, x2 = 0.0507 | 1166.32 | 2.18
303.15 K, x2 = 0.0999 | 1200.4 | 3
303.15 K, x2 = 0.1544 | 1229.53 | 4.08
303.15 K, x2 = 0.1999 | 1249.21 | 5.07
303.15 K, x2 = 0.3004 | 1281.91 | 7.91
303.15 K, x2 = 0.404 | 1305.79 | –
303.15 K, x2 = 0.5044 | 1323.05 | 16.88
303.15 K, x2 = 0.596 | 1335.25 | –
303.15 K, x2 = 0.7027 | 1346.64 | 29.15
303.15 K, x2 = 0.8182 | 1356.39 | –
303.15 K, x2 = 0.8924 | 1361.5 | 44.29
308.15 K, x2 = 0 | 1114.78 | 1.47
308.15 K, x2 = 0.0507 | 1161.53 | 1.97
308.15 K, x2 = 0.0999 | 1195.65 | 2.74
308.15 K, x2 = 0.1544 | 1224.8 | 3.69
308.15 K, x2 = 0.1999 | 1244.56 | 4.55
308.15 K, x2 = 0.3004 | 1277.26 | 7
308.15 K, x2 = 0.404 | 1301.16 | –
308.15 K, x2 = 0.5044 | 1318.46 | 14.47
308.15 K, x2 = 0.596 | 1330.67 | –
308.15 K, x2 = 0.7027 | 1342.09 | 25.57
308.15 K, x2 = 0.8182 | 1351.83 | –
308.15 K, x2 = 0.8924 | 1356.94 | 36.71
313.15 K, x2 = 0 | 1109.87 | 1.37
313.15 K, x2 = 0.0507 | 1156.54 | 1.84
313.15 K, x2 = 0.0999 | 1190.58 | 2.52
313.15 K, x2 = 0.1544 | 1219.69 | 3.34
313.15 K, x2 = 0.1999 | 1239.41 | 4.11
313.15 K, x2 = 0.3004 | 1272 | 6.23
313.15 K, x2 = 0.404 | 1295.78 | –
313.15 K, x2 = 0.5044 | 1313.05 | 12.29
313.15 K, x2 = 0.596 | 1325.23 | –
313.15 K, x2 = 0.7027 | 1336.62 | 20.49
313.15 K, x2 = 0.8182 | 1346.3 | –
313.15 K, x2 = 0.8924 | 1351.37 | 30.2
318.15 K, x2 = 0 | 1104.96 | 1.28
318.15 K, x2 = 0.0507 | 1151.65 | 1.7
318.15 K, x2 = 0.0999 | 1185.71 | 2.31
318.15 K, x2 = 0.1544 | 1214.89 | 3.03
318.15 K, x2 = 0.1999 | 1234.59 | 3.7
318.15 K, x2 = 0.3004 | 1267.16 | 5.72
318.15 K, x2 = 0.404 | 1290.94 | –
318.15 K, x2 = 0.5044 | 1308.19 | 10.74
318.15 K, x2 = 0.596 | 1320.36 | –
318.15 K, x2 = 0.7027 | 1331.75 | 17.5
318.15 K, x2 = 0.8182 | 1341.42 | –
318.15 K, x2 = 0.8924 | 1346.5 | 25.41
323.15 K, x2 = 0 | 1100.05 | 1.2
323.15 K, x2 = 0.0507 | 1147.03 | 1.58
323.15 K, x2 = 0.0999 | 1181.36 | 2.14
323.15 K, x2 = 0.1544 | 1210.78 | 2.69
323.15 K, x2 = 0.1999 | 1230.51 | 3.38
323.15 K, x2 = 0.3004 | 1263.32 | 5.21
323.15 K, x2 = 0.404 | 1287.31 | –
323.15 K, x2 = 0.5044 | 1304.67 | 9.36
323.15 K, x2 = 0.596 | 1316.95 | –
323.15 K, x2 = 0.7027 | 1328.43 | 15
323.15 K, x2 = 0.8182 | 1338.19 | –
323.15 K, x2 = 0.8924 | 1343.3 | 21.39

— the NIST ThermoML archive (doi:10.1016/j.jct.2016.03.034)
